# Test results reported in patent EP0593765A1, “6-SUBSTITUTED LIPID A ANALOG” (priority 1991, dated 1993).
# How the values were obtained:
# [1] = test system: interleukin-1 (IL-1); experiment: IL-1 producing activity (peripheral blood monocyte fraction; supernatant measured on A375 Met-Mix cells); format: cell-based, human; conditions: 50 µg of compound, 1 × 10⁶ cells/well, 48 hours at 37°C; reciprocal of supernatant dilution showing 50% inhibition
# Protocol: The producing activity of interleukin-1 (IL-1) was determined in the following experiment [see Biochem. Biopys. Res. Comm., Vol. 154, 1189 - 1196, 1988].
# From 50 mℓ of human peripheral blood, buffy coat was isolated, and peripheral blood monocyte fraction was obtained by using Lymphoprep (Wako Pharmaceutical). After hemolyzing mixed erythrocytes, cells were rinsed twice in Dulbecco's modified Eagle medium (MEM), and suspended in the RPMI 1640 medium containing 5% fetal cow serum (FCS) and 2.5 × 10⁻⁵ M 2-mercaptoethanol. The cells (1 × 10⁶ cells/well) were incubated in a 24-well plate containing 50 µg (50 µℓ) of the compound of the invention for 48 hours at 37°C in the presence of 5% carbon dioxide, and the supernatant of culture was samples as IL-1 induction supernatant. The IL-1 activity in the IL-1 induction supernatant was evaluated by measuring the growth inhibitory activity of IL-1 susceptible human melanoma cell A375 Met-Mix. The cells of A375 Met-Mix (2 × 10³ cells/0.1 mℓ/well) were suspended in RPMI 1640 medium containing 10% FCS, and the IL-1 induction supernatant (0.1 mℓ/well) diluted in steps was added and incubated in a 96-well plate for 96 hours at 37°C in the presence of 5% carbon dioxide. After incubation, the viable cells were fixed with methanol, and the cells were stained with 0.2% crystal violet, and the cells were dissolved with 1% SDS, and the absorbance at 550 nm was measured. […]
# [2] = test system: neutrophils; experiment: O₂⁻ production stimulating activity in neutrophils; format: cell-based, C3H/HeN mouse; conditions: compound 10 µg/mℓ, 37°C for 60 minutes, then cytochrome C (80 µM) and FMLP (0.1 µM); SOD-inhibitable cytochrome C reduction
# Protocol: The O₂⁻ production stimulating activity in neutrophils was evaluated in the following experimental system [see J. Exp. Med., Vol. 160, 1656 - 1671, 1984].
# In the peritoneal cavity of C3H/HeN mouse (male, 8 - 9 weeks old), physiological saline containing 0.2% (w/v) of casein was administered. Three hours later, peritoneal exudate cells (90% or more of which are neutrophils) induced in the peritoneal cavity were collected. These cells (1.7 × 10⁶ cells/ml/tube) were incubated in the presence of the compound of the invention (10 µg/mℓ) at 37°C for 60 minutes, and cytochrome C (80 µM) and fomyl-methionyl-leucyl-phenylalanine (FMLP) (0.1 µM) were added. After reaction for 10 minutes at 37°C in the presence of or in the absence of superoxide dismutase (SOD), the SOD-inhibitable cytochrome C reduction quantity was calculated from the difference of absorbances at 550 nm and 541.7 nm and the molar absorption coefficient (16.5 × 10³). The O₂⁻ production stimulating activity was expressed in the following stimulation percentage. [formula] The compounds of the invention presented the activities as shown in the below table.
# [3] = test system: spleen cells; experiment: Mitogen activity (³H-thymidine uptake into spleen cells); format: cell-based, C3H/HeN mouse; conditions: 48 hours incubation
# Protocol: The mitogen activity was evaluated in the following experiment [see Eur. J. Immunol., Vol. 14, 109 - 114, 1984].
# The spleen of C3H/HeN mouse (male, 6 - 10 weeks old) was aseptically removed, rubbed and loosened in MEM, and passed through stainless steel mesh, and spleen cells were sampled. After hemolyzing the erythrocytes mixed in the spleen cells, the cells were suspended in RPMI 1640 medium containing 5% FBS and presented for the experiment.
# The mitogen activity of the compound of the invention was evaluated by measuring the quantity of ³H-thymidine taken into the spleen cells treated with the compound of the invention. That is, the spleen cells adjusted to 5 × 10⁶ cells/well (100 µℓ) were seeded in a 96-well plate, and the compound of the invention (100 µℓ) at specified concentration was added to the spleen cells. After incubation for 48 hours at 37°C in the presence of 5% carbon dioxide, 1 µCi/well (50 µℓ) of ³H-thymidine was added to the incubated cells, which were incubated for further 4 hours. The cells were washed in phosphate buffer saline (PBS), and the titer of ³H-thymidine (radioactivity) taken in the cells was determined by liquid scintillation counter. […]
# [4] = test system: TNF; experiment: TNF producing activity (TNF in serum measured by damage of L929 cells); format: in vivo, ICR mouse; conditions: Corynebacterium parvum primed mouse, 10 µg/mouse intravenously nine days later, blood sampled 90 minutes later; reciprocal of serum dilution showing 50% cytotoxicity
# Protocol: The producing activity of TNF was evaluated in the following experiment.
# The first stimulating agent, 5% suspension (0.2 mℓ physiological saline) of Corynebacterium parvum was intravenously administered to ICR mouse (female, 6 - 7 weeks old). Nine days later, as the second stimulating agent, 10 µg/mouse of the compound of the invention was intravenously administered, and 90 minutes later, 0.5 to 1 mℓ of blood was sampled from the retro-orbital plexus. After being allowed to stand at room temperature for 5 to 6 hours, the blood was centrifuged at 7200 × g for 5 minutes to separate the serum. The serum was incubated at 56°C for 30 minutes for inactivation before use in the following experiment.
# The TNF activity in serum was determined by measuring the damage of L929 cells were adjusted to a concentration of 6 × 10⁴ cells/well (0.1 mℓ) on the culture medium of RPMI 1640 containing 10% of fetal bovine serum (FBS) and 2 µg/mℓ of actinomycin D, and were seeded on a 96-well plates. The serum was diluted in steps in the RPMI 1640 medium with 10% FBS, and added to the cell by 0.1 mℓ for each. After incubation for 48 hours at 37°C, the viable cells were fixed with methanol. After staining the cells with 0.2% crystal violet, the cells were dissolved in 1% sodium dodecyl sulfate (SDS), and the absorbance at 550 nm was measured. […]
# [5] = Lethal toxicity by galactosamine loading; set-up: species or system C57BL mouse; conditions: mouse, in vivo, ip; 10 mg D-galactosamine hydrochloride intraperitoneally, compound in the caudal vein immediately after; observed to the seventh day; read-out: LD₅₀ (Galactosamine load)
# Protocol: The lethal toxicity by galactosamine loading was evaluated in the following experiment [see J. Biochem., Vol. 98, 395 - 406, 1985].
# To C57BL mouse (female, 7 weeks old), 10 mg of D-galactosamine hydrochloride was intraperitoneally administered, and the compound of the invention was administered in the caudal vein immediately after that.
# [6] = compound concentration 10 µg/mℓ
SMILES,IL-1 titer [1] [U/mℓ],Stimulation percentage [2],Simulation index ([3]; compound concentration 1 µg/mℓ),"Simulation index [3, 6]",TNF titer in serum [4] [U/mℓ],LD50 at 168 h [5] [mg/kg]
"CCCCCCCCCCCCCCC(CCCCCCCCCCCC)C(=O)O[C@H]1[C@H](OP(=O)(O)O)[C@@H](COC(=O)C(C)(C)C)OC[C@@H]1NC(=O)C[C@H](O)CCCCCCCCCCC (mixture of isomers) [Example 4, 1,5-Anhydro-2-deoxy-3-O-{(2RS)-2-dodecylhexadecanoyl}-2-{(3R)-3-hydroxytetradecanamido}-4-O-phosphono-6-O-pivaloyl-D-glucitol]",16,293,5.1,19.6,–,–
"CCCCCCCCCCCCCCC(CCCCCCCCCCCC)C(=O)O[C@H]1[C@H](OP(=O)(O)O)[C@@H](CO)OC[C@@H]1NC(=O)C[C@H](O)CCCCCCCCCCC (stereo partly shown) [Control compound, reference compound]",15,80,2.7,18.3,538900,0.0028
CCCCCCCCCCCCCCC(CCCCCCCCCCCC)C(=O)O[C@H]1[C@H](OP(=O)(O)O)[C@@H](COC(=O)CCC(=O)OC)OC[C@@H]1NC(=O)C[C@H](O)CCCCCCCCCCC (stereo partly shown) [Example 1],24,363,14.8,26.5,727800,0.0299
